Experimental data from ChEMBL document CHEMBL3751693, “Synthesis, antimicrobial evaluation and molecular modeling of 5-hydroxyisoquinolinium salt series; the effect of the hydroxyl moiety” (Bioorg Med Chem, 2016).

How the values were obtained:
Staphylococcus aureus [1] = experiment: Antimicrobial activity against clinical isolate Staphylococcus aureus CCM 451608 after 24 hrs; assay type: functional; conditions: CCM 451608, 24 h
Staphylococcus aureus [2] = experiment: Antimicrobial activity against clinical isolate methicillin-resistant Staphylococcus aureus H 599608 after 48 hrs; assay type: functional; conditions: H 599608, 48 h
Nakaseomyces glabratus [3] = experiment: Antimicrobial activity against Candida glabrata 20/I after 48 hrs by spectrophotometry; assay type: functional
Lichtheimia corymbifera [4] = experiment: Antimicrobial activity against Absidia corymbifera 272 after 48 hrs by spectrophotometry; assay type: functional; conditions: Lichtheimia corymbifera, 272, 48 h
Pichia kudriavzevii [5] = experiment: Antimicrobial activity against Candida krusei E28 after 24 hrs by spectrophotometry; assay type: functional; conditions: E28, 24 h
Trichosporon asahii [6] = experiment: Antimicrobial activity against Trichosporon asahii 1188 after 48 hrs by spectrophotometry; assay type: functional; conditions: Trichosporon asahii, 1188, 48 h
Trichosporon asahii [7] = experiment: Antimicrobial activity against Trichosporon asahii 1188 after 24 hrs by spectrophotometry; assay type: functional; conditions: Trichosporon asahii, 1188, 24 h
Pichia kudriavzevii [8] = experiment: Antimicrobial activity against Candida krusei E28 after 48 hrs by spectrophotometry; assay type: functional; conditions: E28, 48 h
Klebsiella pneumoniae [9] = experiment: Antimicrobial activity against clinical isolate ESBL-Klebsiella pneumoniae J 1436808 after 48 hrs; assay type: functional; conditions: J 1436808, 48 h
[10] = Cytotoxicity against CHOK1 cells after 24 hrs by MTT assay; assay type: cell-based; conditions: Cricetulus griseus, CHO-K1, 24 h
Klebsiella pneumoniae [11] = experiment: Antimicrobial activity against clinical isolate Klebsiella pneumoniae D 1175008 after 48 hrs; assay type: functional; conditions: D 1175008, 48 h
Candida albicans [12] = experiment: Antimicrobial activity against Candida albicans ATCC 44859 after 48 hrs by spectrophotometry; assay type: functional; conditions: ATCC 44859, 48 h
Candida albicans [13] = experiment: Antimicrobial activity against Candida albicans ATCC 44859 after 24 hrs by spectrophotometry; assay type: functional; conditions: ATCC 44859, 24 h
Candida tropicalis [14] = experiment: Antimicrobial activity against Candida tropicalis 156 after 48 hrs by spectrophotometry; assay type: functional; conditions: Candida tropicalis, 156, 48 h
Candida tropicalis [15] = experiment: Antimicrobial activity against Candida tropicalis 156 after 24 hrs by spectrophotometry; assay type: functional; conditions: Candida tropicalis, 156, 24 h
Aspergillus fumigatus [16] = experiment: Antimicrobial activity against Aspergillus fumigatus 231 after 24 hrs by spectrophotometry; assay type: functional; conditions: Aspergillus fumigatus, 231, 24 h
[17] = test system: Trichophyton mentagrophytes; experiment: Antimicrobial activity against Trichophyton mentagrophytes 445 after 72 hrs by spectrophotometry; assay type: functional; conditions: Trichophyton mentagrophytes, 445, 72 h
Escherichia coli [18] = experiment: Antimicrobial activity against clinical isolate Escherichia coli CCM 4517 after 48 hrs; assay type: functional; conditions: CCM 4517, 48 h
Klebsiella pneumoniae [19] = experiment: Antimicrobial activity against clinical isolate ESBL-Klebsiella pneumoniae J 1436808 after 24 hrs; assay type: functional; conditions: J 1436808, 24 h
Staphylococcus aureus [20] = experiment: Antimicrobial activity against clinical isolate Staphylococcus aureus CCM 451608 after 48 hrs; assay type: functional; conditions: CCM 451608, 48 h
Pseudomonas aeruginosa [21] = experiment: Antimicrobial activity against clinical isolate Pseudomonas aeruginosa CCM 1961 after 120 hrs; assay type: functional; conditions: CCM 1961, 120 h
Nakaseomyces glabratus [22] = experiment: Antimicrobial activity against Candida glabrata 20/I after 24 hrs by spectrophotometry; assay type: functional
Staphylococcus aureus [23] = experiment: Antimicrobial activity against clinical isolate methicillin-resistant Staphylococcus aureus H 599608 after 24 hrs; assay type: functional; conditions: H 599608, 24 h
Aspergillus fumigatus [24] = experiment: Antimicrobial activity against Aspergillus fumigatus 231 after 48 hrs by spectrophotometry; assay type: functional; conditions: Aspergillus fumigatus, 231, 48 h
Enterococcus sp. [25] = experiment: Antimicrobial activity against clinical isolate Enterococcus sp. J 1436508 after 24 hrs; assay type: functional; conditions: J 1436508, 24 h
Klebsiella pneumoniae [26] = experiment: Antimicrobial activity against clinical isolate Klebsiella pneumoniae D 1175008 after 24 hrs; assay type: functional; conditions: D 1175008, 24 h
[27] = test system: Staphylococcus epidermidis; experiment: Antimicrobial activity against clinical isolate Staphylococcus epidermidis H 696608 after 48 hrs; assay type: functional; conditions: H 696608, 48 h
Pseudomonas aeruginosa [28] = experiment: Antimicrobial activity against clinical isolate Pseudomonas aeruginosa CCM 1961 after 72 hrs; assay type: functional; conditions: CCM 1961, 72 h
Enterococcus sp. [29] = experiment: Antimicrobial activity against clinical isolate Enterococcus sp. J 1436508 after 48 hrs; assay type: functional; conditions: J 1436508, 48 h
[30] = test system: Trichophyton mentagrophytes; experiment: Antimicrobial activity against Trichophyton mentagrophytes 445 after 120 hrs by spectrophotometry; assay type: functional; conditions: Trichophyton mentagrophytes, 445, 120 h
[31] = test system: Staphylococcus epidermidis; experiment: Antimicrobial activity against clinical isolate Staphylococcus epidermidis H 696608 after 24 hrs; assay type: functional; conditions: H 696608, 24 h
Lichtheimia corymbifera [32] = experiment: Antimicrobial activity against Absidia corymbifera 272 after 24 hrs by spectrophotometry; assay type: functional; conditions: Lichtheimia corymbifera, 272, 24 h
Escherichia coli [33] = experiment: Antimicrobial activity against clinical isolate Escherichia coli CCM 4517 after 24 hrs; assay type: functional; conditions: CCM 4517, 24 h

CCCCCCCCCC[n+]1ccc2c(O)cccc2c1
MIC (Staphylococcus aureus [1]): 16 µM | MBC (Staphylococcus aureus [2]): 16 µM | MIC (Staphylococcus aureus [2]): 31 µM | MFC (Nakaseomyces glabratus [3]): 63 µM | MIC (Nakaseomyces glabratus [3]): 16 µM | MFC (Lichtheimia corymbifera [4]): > 500 µM | MIC (Lichtheimia corymbifera [4]): > 500 µM | MIC (Pichia kudriavzevii [5]): 31 µM | MFC (Trichosporon asahii [6]): 500 µM | MIC (Trichosporon asahii [6]): 250 µM | MIC (Trichosporon asahii [7]): 250 µM | MFC (Pichia kudriavzevii [8]): 31 µM | MIC (Pichia kudriavzevii [8]): 31 µM | MBC (Klebsiella pneumoniae [9]): 500 µM | MIC (Klebsiella pneumoniae [9]): 500 µM | IC50 [10]: 92 µM | MBC (Klebsiella pneumoniae [11]): 63 µM | MIC (Klebsiella pneumoniae [11]): 63 µM | MFC (Candida albicans [12]): 250 µM | MIC (Candida albicans [12]): 250 µM | MIC (Candida albicans [13]): 250 µM | MFC (Candida tropicalis [14]): 500 µM | MIC (Candida tropicalis [14]): 125 µM | MIC (Candida tropicalis [15]): 125 µM | MIC (Aspergillus fumigatus [16]): > 500 µM | MIC [17]: 31 µM | MBC (Escherichia coli [18]): 63 µM | MIC (Escherichia coli [18]): 63 µM | MIC (Klebsiella pneumoniae [19]): 500 µM | MBC (Staphylococcus aureus [20]): 63 µM | MIC (Staphylococcus aureus [20]): 16 µM | MBC (Pseudomonas aeruginosa [21]): > 500 µM | MIC (Pseudomonas aeruginosa [21]): 250 µM | MIC (Nakaseomyces glabratus [22]): 16 µM | MIC (Staphylococcus aureus [23]): 31 µM | MFC (Aspergillus fumigatus [24]): > 500 µM | MIC (Aspergillus fumigatus [24]): > 500 µM | MIC (Enterococcus sp. [25]): 500 µM | MIC (Klebsiella pneumoniae [26]): 63 µM | MBC [27]: 250 µM | MIC [27]: 250 µM | MIC (Pseudomonas aeruginosa [28]): 250 µM | MBC (Enterococcus sp. [29]): 500 µM | MIC (Enterococcus sp. [29]): 500 µM | MFC [30]: 125 µM | MIC [30]: 31 µM | MIC [31]: 250 µM | MIC (Lichtheimia corymbifera [32]): > 500 µM | MIC (Escherichia coli [33]): 63 µM

CCCCCCCCCCCCCC[n+]1ccc2c(O)cccc2c1
MIC (Staphylococcus aureus [1]): 0.5 µM | MBC (Staphylococcus aureus [2]): 2 µM | MIC (Staphylococcus aureus [2]): 2 µM | MFC (Nakaseomyces glabratus [3]): 7.8 µM | MIC (Nakaseomyces glabratus [3]): 3.9 µM | MFC (Lichtheimia corymbifera [4]): 125 µM | MIC (Lichtheimia corymbifera [4]): 63 µM | MIC (Pichia kudriavzevii [5]): 3.9 µM | MFC (Trichosporon asahii [6]): 7.8 µM | MIC (Trichosporon asahii [6]): 7.8 µM | MIC (Trichosporon asahii [7]): 7.8 µM | MFC (Pichia kudriavzevii [8]): 3.9 µM | MIC (Pichia kudriavzevii [8]): 3.9 µM | MBC (Klebsiella pneumoniae [9]): > 500 µM | MIC (Klebsiella pneumoniae [9]): 500 µM | IC50 [10]: 24 µM | MBC (Klebsiella pneumoniae [11]): > 500 µM | MIC (Klebsiella pneumoniae [11]): > 500 µM | MFC (Candida albicans [12]): 63 µM | MIC (Candida albicans [12]): 63 µM | MIC (Candida albicans [13]): 63 µM | MFC (Candida tropicalis [14]): 7.8 µM | MIC (Candida tropicalis [14]): 7.8 µM | MIC (Candida tropicalis [15]): 7.8 µM | MIC (Aspergillus fumigatus [16]): 31 µM | MIC [17]: 16 µM | MBC (Escherichia coli [18]): > 500 µM | MIC (Escherichia coli [18]): > 500 µM | MIC (Klebsiella pneumoniae [19]): > 500 µM | MBC (Staphylococcus aureus [20]): 1 µM | MIC (Staphylococcus aureus [20]): 0.5 µM | MBC (Pseudomonas aeruginosa [21]): > 500 µM | MIC (Pseudomonas aeruginosa [21]): > 500 µM | MIC (Nakaseomyces glabratus [22]): 3.9 µM | MIC (Staphylococcus aureus [23]): 2 µM | MFC (Aspergillus fumigatus [24]): 125 µM | MIC (Aspergillus fumigatus [24]): 31 µM | MIC (Enterococcus sp. [25]): 63 µM | MIC (Klebsiella pneumoniae [26]): > 500 µM | MBC [27]: 7.8 µM | MIC [27]: 3.9 µM | MIC (Pseudomonas aeruginosa [28]): > 500 µM | MBC (Enterococcus sp. [29]): 63 µM | MIC (Enterococcus sp. [29]): 63 µM | MFC [30]: 31 µM | MIC [30]: 16 µM | MIC [31]: 3.9 µM | MIC (Lichtheimia corymbifera [32]): 63 µM | MIC (Escherichia coli [33]): > 500 µM

CCCCCCCCCCCC[n+]1ccc2c(O)cccc2c1
MIC (Staphylococcus aureus [1]): 1 µM | MBC (Staphylococcus aureus [2]): 3.9 µM | MIC (Staphylococcus aureus [2]): 3.9 µM | MFC (Nakaseomyces glabratus [3]): 7.8 µM | MIC (Nakaseomyces glabratus [3]): 3.9 µM | MFC (Lichtheimia corymbifera [4]): 250 µM | MIC (Lichtheimia corymbifera [4]): 125 µM | MIC (Pichia kudriavzevii [5]): 7.8 µM | MFC (Trichosporon asahii [6]): 31 µM | MIC (Trichosporon asahii [6]): 31 µM | MIC (Trichosporon asahii [7]): 31 µM | MFC (Pichia kudriavzevii [8]): 7.8 µM | MIC (Pichia kudriavzevii [8]): 7.8 µM | MBC (Klebsiella pneumoniae [9]): 63 µM | MIC (Klebsiella pneumoniae [9]): 63 µM | IC50 [10]: 36 µM | MBC (Klebsiella pneumoniae [11]): 63 µM | MIC (Klebsiella pneumoniae [11]): 63 µM | MFC (Candida albicans [12]): 63 µM | MIC (Candida albicans [12]): 63 µM | MIC (Candida albicans [13]): 63 µM | MFC (Candida tropicalis [14]): 63 µM | MIC (Candida tropicalis [14]): 31 µM | MIC (Candida tropicalis [15]): 31 µM | MIC (Aspergillus fumigatus [16]): 31 µM | MIC [17]: 31 µM | MBC (Escherichia coli [18]): 250 µM | MIC (Escherichia coli [18]): 250 µM | MIC (Klebsiella pneumoniae [19]): 63 µM | MBC (Staphylococcus aureus [20]): 2 µM | MIC (Staphylococcus aureus [20]): 1 µM | MBC (Pseudomonas aeruginosa [21]): 63 µM | MIC (Pseudomonas aeruginosa [21]): 63 µM | MIC (Nakaseomyces glabratus [22]): 3.9 µM | MIC (Staphylococcus aureus [23]): 3.9 µM | MFC (Aspergillus fumigatus [24]): 250 µM | MIC (Aspergillus fumigatus [24]): 31 µM | MIC (Enterococcus sp. [25]): 63 µM | MIC (Klebsiella pneumoniae [26]): 63 µM | MBC [27]: 3.9 µM | MIC [27]: 3.9 µM | MIC (Pseudomonas aeruginosa [28]): 63 µM | MBC (Enterococcus sp. [29]): 63 µM | MIC (Enterococcus sp. [29]): 63 µM | MFC [30]: 63 µM | MIC [30]: 31 µM | MIC [31]: 3.9 µM | MIC (Lichtheimia corymbifera [32]): 125 µM | MIC (Escherichia coli [33]): 250 µM
